In the experiment the test system is 857933-349-R-J2-PDC complex spheroid viability. Description: Anticancer human tumor 857933-349-R-J2-PDC patient-derived colon adenocarcinoma cell line growth inhibition [POLQ]. Conditions: for viability, T/C: stronger effect = lower value. Here is the method:
Multicellular complex tumor spheroid response to Polymerase (POL) inhibitors (novobiocin, ART-558, RP6685) in combination with a variety of drugs and investigational agents in selected tumor cell lines
The POL inhibitors (novobiocin, ART-558, and RP6685) were evaluated both individually and in combination with standard of care and investigational anticancer small molecules within a complex spheroid model of solid tumors. . Complex spheroids include a stromal component modeled by human endothelial cells (HUVEC) and fibroblasts modeled by human mesenchymal stem cells (MSCs). The concentration ranges selected for each drug and investigational agent were based upon clinically achievable concentrations if the clinical Cmax of the agent was known.
Compounds. The drugs and investigational agents: novobiocin (NSC847541), ART-558 (NSC835418), RP-6685 (NSC848927), peposertib (NSC802822), ceralasertib (NSC780249), elimusertib (NSC800525), camonsertib (NSC841442), AZD-1390 (NSC803789), olaparib (NSC753686), talazoparib (NSC767125), rucaparib (NSC756644), sotorasib (NSC818433), MRTX-1133 (NSC836407), SN-38 (NSC673596), topotecan (NSC609699), epotoside (NSC141540), doxorubicin (NSC123127), gemcitabine (NSC613327), 5-fluorouracil (NSC19893), paclitaxel (NSC125973), vemurafenib (NSC761431), MSA-2 (NSC828583), SN-011 (NSC837082), adavosertib (NSC754352), prexasertib (NSC758257), carboplatin (NSC241240) and oxaliplatin (NSC266046), were obtained from the National Cancer Institute (NCI) Developmental Therapeutics Program Chemical Repository (21). The FDA-approved anticancer drug set is available from the Developmental Therapeutics Program at https://dtp.cancer.gov/organization/dscb/obtaining/. […] The stock solutions were prepared in dimethyl sulfoxide (DMSO, Sigma-Aldrich, St. Louis, MO, cat. D2650), except for the platinum compounds which were prepared in saline (Quality Biological, Gaithersburg, MD, cat. 114-055-101), at 800-fold the tested concentration and stored at -70 degrees C prior to their use. All drugs and investigational agents were tested over a range starting from a high concentration at or near the clinical Cmax and decreasing in half-log increments. If the clinical Cmax for an agent had not been determined, the highest concentration tested was 10 microM, except for SN-38, which was tested at a high concentration of 1 microM.
Cell Culture. All cells were maintained in an incubator at 37 degrees C and 5% CO2 with 95% humidity. The PDC lines were cultured according to standard operating procedures established by the NCI PDMR (https://pdmr.cancer.gov). Table 3 of the manuscript, lists the cell lines along with the number of the three cell types plated to form the mct-spheroids and media for tumor cell growth. After thawing, all PDC lines, except 997537-175-T-J1-PDC and 415267-285-R-J2-PDC, were cultured in Matrigel-coated flasks prepared with a working solution of 1X Ham's F-12 nutrient mix, without supplementation (Thermo Fisher Scientific, cat. 11765054), 100 U/mL penicillin-streptomycin (Thermo Fisher Scientific, cat. 15140122), and 2.5% Matrigel (Corning Inc., Corning, NY, cat. 354248) for the first three passages. The two PDC lines 997537-175-T-J1-PDC and 415267-285-R-J2-PDC were cultured on uncoated flasks. The 857933-349-R-J2-PDC line was cultured in 6C/Colon 1B media containing advanced DMEM/F-12 (Thermo Fisher Scientific, cat. 12634028), 10 mM HEPES (Thermo Fisher Scientific, cat. 15630080), 1X GlutaMAX supplement (Thermo Fisher Scientific, cat. 35050061), 0.1 mg/mL primocin (InvivoGen, San Diego, CA, cat. ant-pm-2), 10% defined fetal bovine serum, heat inactivated (HyClone Laboratories Inc., Logan, UT, cat. SH30070.03HI), 50% L-WRN conditioned media (ATCC, cat. CRL-3276), 1.25 mM N-Acetyl-L-cysteine (Sigma-Aldrich, cat. A9165), 10 mM nicotinamide (Sigma-Aldrich, cat. N0636), 1X B-27 supplement (Thermo Fisher Scientific, cat. 17504044), 1X N-2 supplement (Thermo Fisher Scientific, cat. […]

This is an account of results in PubChem BioAssay AID1963836 (Molecular Pharmacology Branch, DTP, NCI, 2024).

SMILES strings stand for the structures. pIC50: −log10 of the molar value. Several values for one entry are separate records, joined by “and”; a condition that tells them apart may be missing. Equal values may be shown once.
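Further: spheroids exposed to compounds for seven days before readout.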

The viability, T/C is the result in the treated group divided by that in the control group, in per cent. In general, pIC50 refers to the IC50 on a negative log10 scale, so that one unit is a factor of ten. `C#Cc1c(F)ccc2cc(O)cc(-c3ncc4c(N5CC6CCC(C5)N6)nc(OCC56CCCN5CC(F)C6)nc4c3F)c12` (stereo not drawn): the viability, T/C reads like this: (compound 0.0316 µM) 85.3% and 89.3% and 102%; (compound 0.1 µM) 101% and 91.6% and 82.3%; (compound 0.316 µM) 95.7% and 95.3% and 81.3%; (compound 1 µM) 87.1% and 81.7% and 96.6%; (compound 3.16 µM) 99.9% and 71.5% and 70.8%; (compound 10 µM) 76.4% and 80.9% and 93.4%. For the same compound, the negative-log IC50 (pIC50) (curve of compound) is < 5.00.

In the case of `CC1COCCN1c1cc(C2(O)CC3CCC(C2)O3)c2cnn(-c3ccn[nH]3)c2n1` (stereo not drawn), the viability, T/C is 62.7% and 58.8% and 79.7% (compound 0.0316 µM); 51.6% and 50.3% and 63.5% (compound 0.1 µM); 52.9% and 47% and 57.7% (compound 0.316 µM); 44.2% and 42.2% and 45.6% (compound 1 µM); 39.6% and 45.2% and 46.2% (compound 3.16 µM); 45.9% and 49.6% and 45.8% (compound 10 µM). For the same compound, the negative logarithm of the IC50 (pIC50) (curve of compound) is 6.63 and 7.03 and 6.09.

Regarding `CCc1cc2c(N3CCc4c(cc(Cn5ccnc5)cc4-c4cn(C)nc4C(F)(F)F)C3=O)cc(C)nc2c(OC)n1`, the viability, T/C reads like this: (compound 0.0316 µM) 87% and 98.2% and 83.5%; (compound 0.1 µM) 84.3% and 88% and 82%; (compound 0.316 µM) 97.7% and 105% and 92.7%; (compound 1 µM) 61.2% and 84.8% and 84%; (compound 3.16 µM) 65% and 78.1% and 61.3%; (compound 10 µM) 54.8% and 53.6% and 58.1%. Under “curve of compound”, the negative-log IC50 (pIC50) was < 5.00.

With `COC1C(OC(N)=O)C(O)C(Oc2ccc3c(O)c(NC(=O)c4ccc(O)c(CC=C(C)C)c4)c(=O)oc3c2C)OC1(C)C` (stereo not drawn), the pIC50 (compound alone, run of 01/08/2024) is < 5.00.

Turning to `COc1cc2cc(C(=O)CCC(=O)O)sc2cc1OC`, the viability, T/C runs as follows: (compound 0.0316 µM) 92.5% and 89% and 101%; (compound 0.1 µM) 88.6% and 95.5% and 91.5%; (compound 0.316 µM) 94.9% and 102% and 82.7%; (compound 1 µM) 88.2% and 110% and 92.5%; (compound 3.16 µM) 102% and 111% and 116%; (compound 10 µM) 84.1% and 95% and 89.9%. Besides, the negative logarithm of the IC50 (pIC50) (curve of compound) was < 5.00.

`O=C(Nc1ccc(O)c(NS(=O)(=O)c2ccc(F)cc2)c1)c1ccc(-c2ccccc2)cc1`: the viability, T/C is 93.1% and 99.4% and 97.2% (compound 0.0316 µM); 97.3% and 105% and 102% (compound 0.1 µM); 82.5% and 107% and 105% (compound 0.316 µM); 94.7% and 94% and 82.6% (compound 1 µM); 95.3% and 86.2% and 100% (compound 3.16 µM); 77.8% and 88.1% and 78.2% (compound 10 µM). Also, the pIC50 (curve of compound) was < 5.00.

As for `COc1cccc2c1C(=O)c1c(O)c3c(c(O)c1C2=O)CC(O)(C(=O)CO)CC3OC1CC(N)C(O)C(C)O1` (stereo not drawn) + COC1C(OC(N)=O)C(O)C(Oc2ccc3c(O)c(NC(=O)c4ccc(O)c(CC=C(C)C)c4)c(=O)oc3c2C)OC1(C)C, the pIC50 (curve of first compound, second compound 0.0316 µM) is 6.48; the negative-log IC50 (pIC50) (curve of first compound, second compound 0.1 µM) is 6.67; the negative-log IC50 (pIC50) (curve of first compound, second compound 0.316 µM) is 6.49; the negative-log IC50 (pIC50) (curve of first compound, second compound 1 µM) is 6.65; the pIC50 (curve of first compound, second compound 3.16 µM) was 6.49; the pIC50 (curve of first compound, second compound 10 µM) was 6.58. Also, the viability, T/C is 73.1% (second compound 0.0316 µM, first compound 0.0316 µM); 80.2% (second compound 0.0316 µM, first compound 0.1 µM); 51.4% (second compound 0.0316 µM, first compound 0.316 µM); 8.39% (second compound 0.0316 µM, first compound 1 µM); 0.35% (second compound 0.0316 µM, first compound 3.16 µM); 0.47% (second compound 0.0316 µM, first compound 10 µM). The viability, T/C is, setting by setting: (second compound 0.1 µM, first compound 0.0316 µM) 64.2%; (second compound 0.1 µM, first compound 0.1 µM) 70.5%; (second compound 0.1 µM, first compound 0.316 µM) 41.3%; (second compound 0.1 µM, first compound 1 µM) 5.48%; (second compound 0.1 µM, first compound 3.16 µM) 0.39%; (second compound 0.1 µM, first compound 10 µM) 0.29%. In addition, the viability, T/C runs as follows: (second compound 0.316 µM, first compound 0.0316 µM) 79.8%; (second compound 0.316 µM, first compound 0.1 µM) 76.2%; (second compound 0.316 µM, first compound 0.316 µM) 51.3%; (second compound 0.316 µM, first compound 1 µM) 8.79%; (second compound 0.316 µM, first compound 3.16 µM) 0.37%; (second compound 0.316 µM, first compound 10 µM) 0.44%. Besides, the viability, T/C runs as follows: (second compound 1 µM, first compound 0.0316 µM) 70.9%; (second compound 1 µM, first compound 0.1 µM) 58.8%; (second compound 1 µM, first compound 0.316 µM) 45.6%; (second compound 1 µM, first compound 1 µM) 6.1%; (second compound 1 µM, first compound 3.16 µM) 0.31%; (second compound 1 µM, first compound 10 µM) 0.43%. The viability, T/C by setting is: (second compound 3.16 µM, first compound 0.0316 µM) 68.3%; (second compound 3.16 µM, first compound 0.1 µM) 68.2%; (second compound 3.16 µM, first compound 0.316 µM) 50.3%; (second compound 3.16 µM, first compound 1 µM) 9.54%; (second compound 3.16 µM, first compound 3.16 µM) 0.51%; (second compound 3.16 µM, first compound 10 µM) 0.49%. In addition, the viability, T/C was 75.1% (second compound 10 µM, first compound 0.0316 µM); 80.3% (second compound 10 µM, first compound 0.1 µM); 43.5% (second compound 10 µM, first compound 0.316 µM); 10% (second compound 10 µM, first compound 1 µM); 0.39% (second compound 10 µM, first compound 3.16 µM); 0.49% (second compound 10 µM, first compound 10 µM).
